Values after ≈ are worked out from the molar mass of the structure shown.
Assays:
[1] = system: Aspergillus flavus ATCC204304; assay: Fungus panel screening, CLSI broth microdilution; assay type: cell-based; details: for MIC50: 50% inhibition by visual inspection (CLSI); for MIC: 100% inhibition by visual inspection (CLSI), read-out: MIC100
Experimental: (§1) Fungus panel screening was conducted by Eurofins Panlabs Inc. The MIC and MIC50 values of the test articles were determined following the guidelines of the CLSI: broth microdilution methods for yeast (CLSI M27-A2), (CLSI, 2002) and for filamentous fungi (CLSI M38-A), (CLSI, 2008).

[2] = system: Candida albicans 20183.073; assay: Fungus panel screening, CLSI broth microdilution; assay type: cell-based; details: for MIC50: 50% inhibition by visual inspection (CLSI); for MIC: 100% inhibition by visual inspection (CLSI), read-out: MIC100
Experimental: as §1

[3] = system: Candida albicans 20240.047; assay: Fungus panel screening, CLSI broth microdilution; assay type: cell-based; details: for MIC50: 50% inhibition by visual inspection (CLSI); for MIC: 100% inhibition by visual inspection (CLSI), read-out: MIC100
Experimental: as §1

[4] = system: Candida albicans ATCC10231; assay: Fungus panel screening, CLSI broth microdilution; assay type: cell-based; details: for MIC50: 50% inhibition by visual inspection (CLSI); for MIC: 100% inhibition by visual inspection (CLSI), read-out: MIC100
Experimental: as §1

Candida glabrata 20197.1 = assay: Fungus panel screening, CLSI broth microdilution; assay type: cell-based; details: Nakaseomyces glabratus; for MIC50: 50% inhibition by visual inspection (CLSI); for MIC: 100% inhibition by visual inspection (CLSI), read-out: MIC100
Experimental: as §1

[5] = system: Candida glabrata AT0036583; assay: Fungus panel screening, CLSI broth microdilution; assay type: cell-based; details: Nakaseomyces glabratus; for MIC50: 50% inhibition by visual inspection (CLSI); for MIC: 100% inhibition by visual inspection (CLSI), read-out: MIC100
Experimental: as §1

Candida krusei ATCC6258 = assay: Fungus panel screening, CLSI broth microdilution; assay type: cell-based; details: Pichia kudriavzevii; for MIC50: 50% inhibition by visual inspection (CLSI); for MIC: 100% inhibition by visual inspection (CLSI), read-out: MIC100
Experimental: as §1

[6] = system: Chaectomium globosum ATCC44699; assay: Fungus panel screening, CLSI broth microdilution; assay type: cell-based; details: for MIC50: 50% inhibition by visual inspection (CLSI); for MIC: 100% inhibition by visual inspection (CLSI), read-out: MIC100
Experimental: as §1

[7] = system: Cryptococcus neoformans ATCC24067; assay: Fungus panel screening, CLSI broth microdilution; assay type: cell-based; details: for MIC50: 50% inhibition by visual inspection (CLSI); for MIC: 100% inhibition by visual inspection (CLSI), read-out: MIC100
Experimental: as §1

[8] = system: Penicillium chrysogenum ATCC9480; assay: Fungus panel screening, CLSI broth microdilution; assay type: cell-based; details: for MIC50: 50% inhibition by visual inspection (CLSI); for MIC: 100% inhibition by visual inspection (CLSI), read-out: MIC100
Experimental: as §1

[9] = Body weight loss of immunocompromised, neutropenic mice caused by A. fumigatus infection; assay type: in vivo, A/J mice; details: days 1, 2 and 3 (therapeutic); for Body weight loss Day 2 / Body weight loss Day 3: vs weight on day 1
Experimental: Aspergillus fumigatus (ATCC 13073 [strain: NIH 5233], American Type Culture Collection, Manassas, Va., USA) was grown on Malt agar (Nissui Pharmaceutical, Tokyo, Japan) plates for 6-7 days at RT (24±1° C.). Spores were aseptically dislodged from the agar plates and suspended in sterile distilled water with 0.05% Tween 80 and 0.1% agar. On the day of infection, spore counts were assessed by haemocytometer and the inoculum was adjusted to obtain a concentration of 1.67×10^8 spores mL^−1 of physiological saline. […] On day 0, animals were infected with the spore suspension (30 μL intra-nasally).
Test substances were administered intra-nasally (35 μL of a suspension (0.0032-10.0 mg/mL of drug substance in physiological saline) once daily, on days 1, 2 and 3 only (thereby representing a therapeutic treatment regimen). For extended prophylactic treatment, test compounds (35 μL of a suspension of 0.0032 or 0.016 mg/mL in physiological saline) were administered intra-nasally once daily for seven days. One group was dosed 30 min before infection on day 0 but not subsequently, while a second group was further dosed on days 1, 2 and 3 after infection. The effects of these treatment paradigms were compared with those obtained when treatment was restricted in other groups to either one day or 30 min before inoculation and then on days 1, 2 and 3 post infection in both cases. In a final group, dosing was limited still further with animals dosed twice, one day and 30 min before infection only.
Animal body weights were monitored daily and at 6 hr after the last dose of drug was administered on day 3, the animals were anesthetised, the tracheas cannulated and BALF blood and lung tissue were collected. The levels of IL-6 and TNFα in serum were determined using Quantikine® mouse IL-6 or TNF-α ELISA kit (R&D systems, Inc., Minneapolis, Minn., USA) respectively. Aspergillus GM in serum was determination using Platelia GM-EIA kits (Bio-Rad Laboratories, Redmond, Wash., USA). Cut-off index (COI) was calculated by the formula: Cut-off index=OD in sample/OD in cut-off control provided in kit. For tissue fungal load assays, 100 mg of lung tissue was removed aseptically and homogenized in 0.2 mL of 0.1% agar in sterile distilled water. Serially diluted lung homogenates were plated on Malt agar plates (50 μL/plate), and incubated at 24±1° C. for 72 to 96 h. The colonies of A. fumigatus on each plate were counted and the fungal titre presented herein as CFUs per gram of lung tissue.

[10] = Posaconazole 0.4 mg/mL intranasal
[11] = Posaconazole 2 mg/mL intranasal
[12] = Posaconazole 10 mg/mL intranasal
[13] = Compound (Ia) 0.0032 mg/mL intranasal
[14] = Compound (Ia) 0.016 mg/mL intranasal
[15] = Compound (Ia) 0.08 mg/mL intranasal

SMILES	MIC50 [1]	MIC [1]	MIC50 [2]	MIC [2]	MIC50 [3]	MIC [3]	MIC50 [4]	MIC [4]	MIC50 (Candida glabrata 20197.1)	MIC (Candida glabrata 20197.1)	MIC50 [5]	MIC [5]	MIC50 (Candida krusei ATCC6258)	MIC (Candida krusei ATCC6258)	MIC50 [6]	MIC [6]	MIC50 [7]	MIC [7]	MIC50 [8]	MIC [8]	also measured
CC[C@@H]([C@H](C)O)n1ncn(-c2ccc(N3CCN(c4ccc(OC[C@@H]5CO[C@@](Cn6cncn6)(c6ccc(F)cc6F)C5)cc4)CC3)cc2)c1=O [Posaconazole, reference compound]	0.063 µg/mL (≈ 0.0899 µM)	0.13 µg/mL (≈ 0.186 µM)	0.25 µg/mL (≈ 0.357 µM)	> 8 µg/mL	0.031 µg/mL (≈ 0.0442 µM)	> 8 µg/mL	0.13 µg/mL (≈ 0.186 µM)	> 8 µg/mL	0.031 µg/mL (≈ 0.0442 µM)	> 8 µg/mL	0.5 µg/mL (≈ 0.713 µM)	> 8 µg/mL	0.13 µg/mL (≈ 0.186 µM)	0.25 µg/mL (≈ 0.357 µM)	0.13 µg/mL (≈ 0.186 µM)	0.25 µg/mL (≈ 0.357 µM)	0.016 µg/mL (≈ 0.0228 µM)	0.25 µg/mL (≈ 0.357 µM)	0.063 µg/mL (≈ 0.0899 µM)	0.13 µg/mL (≈ 0.186 µM)	% Inhibition of weight loss Day 2 [9, 10]: −15%; % Inhibition of weight loss Day 3 [9, 10]: 1%; Body weight loss Day 2 [9, 10]: 5.4 ± 0.4%; Body weight loss Day 3 [9, 10]: 9.2 ± 4.0%; % Inhibition of weight loss Day 2 [9, 11]: 17%; % Inhibition of weight loss Day 3 [9, 11]: 24%; Body weight loss Day 2 [9, 11]: 3.9 ± 1.3%; Body weight loss Day 3 [9, 11]: 7.1 ± 1.9%; % Inhibition of weight loss Day 2 [9, 12]: 17%; % Inhibition of weight loss Day 3 [9, 12]: 54%; Body weight loss Day 2 [9, 12]: 3.9 ± 1.3%; Body weight loss Day 3 [9, 12]: 4.3 ± 1.8%
C[C@@H](c1ncncc1F)[C@](O)(Cn1cncn1)c1ccc(F)cc1F [Voriconazole]	1 µg/mL (≈ 2.86 µM)	2 µg/mL (≈ 5.73 µM)	4 µg/mL (≈ 11.5 µM)	> 8 µg/mL	0.031 µg/mL (≈ 0.0887 µM)	> 8 µg/mL	0.25 µg/mL (≈ 0.716 µM)	> 8 µg/mL	0.031 µg/mL (≈ 0.0887 µM)	> 8 µg/mL	0.25 µg/mL (≈ 0.716 µM)	> 8 µg/mL	0.25 µg/mL (≈ 0.716 µM)	1 µg/mL (≈ 2.86 µM)	0.5 µg/mL (≈ 1.43 µM)	1 µg/mL (≈ 2.86 µM)	0.016 µg/mL (≈ 0.0458 µM)	1 µg/mL (≈ 2.86 µM)	1 µg/mL (≈ 2.86 µM)	2 µg/mL (≈ 5.73 µM)	–
Cc1cc(N2CCN(c3ccc(C(=O)N[C@H]4CCCC[C@@H]4O)cc3)CC2)ccc1OC[C@@H]1CO[C@@](Cn2cncn2)(c2ccc(F)cc2F)C1 [Compound (Ia), 4-(4-(4-(((3R,5R)-5-((1H-1,2,4-triazol-1-yl)methyl)-5-(2,4-difluorophenyl)tetrahydrofuran-3-yl)methoxy)-3-methylphenyl)piperazin-1-yl)-N-((1S,2S)-2-hydroxycyclohexyl) benzamide]	0.13 µg/mL (≈ 0.189 µM)	0.13 µg/mL (≈ 0.189 µM)	0.125 µg/mL (≈ 0.182 µM)	> 2 µg/mL	0.016 µg/mL (≈ 0.0233 µM)	> 2 µg/mL	0.25 µg/mL (≈ 0.364 µM)	> 2 µg/mL	0.0078 µg/mL (≈ 0.0114 µM)	> 2 µg/mL	0.25 µg/mL (≈ 0.364 µM)	> 2 µg/mL	0.25 µg/mL (≈ 0.364 µM)	0.25 µg/mL (≈ 0.364 µM)	0.031 µg/mL (≈ 0.0451 µM)	0.13 µg/mL (≈ 0.189 µM)	0.016 µg/mL (≈ 0.0233 µM)	0.063 µg/mL (≈ 0.0917 µM)	0.063 µg/mL (≈ 0.0917 µM)	0.13 µg/mL (≈ 0.189 µM)	% Inhibition of weight loss Day 2 [9, 13]: 24%; % Inhibition of weight loss Day 3 [9, 13]: 9%; Body weight loss Day 2 [9, 13]: 4.2 ± 1.2%; Body weight loss Day 3 [9, 13]: 9.7 ± 2.1%; % Inhibition of weight loss Day 2 [9, 14]: 35%; % Inhibition of weight loss Day 3 [9, 14]: 9%; Body weight loss Day 2 [9, 14]: 3.6 ± 1.2%; Body weight loss Day 3 [9, 14]: 9.7 ± 3.2%; % Inhibition of weight loss Day 2 [9, 15]: 49%; % Inhibition of weight loss Day 3 [9, 15]: 22%; Body weight loss Day 2 [9, 15]: 2.8 ± 2.4%; Body weight loss Day 3 [9, 15]: 8.3 ± 6.7%

Source: patent US10513511B2, “Aqueous suspension formulation comprising 4-(4-(4-(((3R,5R)-5-((1H-1,2,4-triazol-1-yl)methyl)-5-(2,4-difluoro-phenyl)tetrahydrofuran-3-yl)methoxy)-3-methylphenyl) or a pharmaceutically acceptable salt thereof” (PULMOCIDE LIMITED, priority 2015, dated 2019)
